The nature of this series: Dissolution rate into the solvent. The series is classed as physicochemical. The conditions noted are these: compared with α-type:β-type in a range of 98:2 to 85:15.

Take `O=c1n(CC2CO2)c(=O)n(CC2CO2)c(=O)n1CC1CO1` (stereo not shown) [Tris-(2,3-epoxypropyl)-isocyanurate]: the “dissolution rate for dissolution into the solvent” value is “slower”.

Source of the values: US12077636B2 (NISSAN CHEMICAL CORPORATION, priority 2013, dated 2024).
